Experimental data as given in PubChem BioAssay (NCI).
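Step 1: Grow cells in 96-well plates. Step 2: Expose to compound for 48 hours at 5 concentrations. Step 3: Interpolate endpoints linearly; if unreached, use highest concentration. GI50 marks 50% less growth. TGI: concentration producing complete growth inhibition.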

Assays:
Test in all cases: NCI tumour cell line growth inhibition, 48 h
[1] = test system: 786-0 renal
[2] = test system: A498 renal
[3] = test system: A549 NSCLC
[4] = test system: ACHN renal
[5] = test system: BT-549 breast
[6] = test system: CAKI-1 renal
[7] = test system: CCRF-CEM leukemia
[8] = test system: COLO 205 colon
[9] = test system: DU-145 prostate
[10] = test system: EKVX NSCLC
[11] = test system: HCC-2998 colon
[12] = test system: HCT-116 colon
[13] = test system: HCT-15 colon
[14] = test system: HL-60(TB) leukemia
[15] = test system: HOP-62 NSCLC
[16] = test system: HOP-92 NSCLC
[17] = test system: HS 578T breast
[18] = test system: HT29 colon
[19] = test system: IGROV1 ovarian
[20] = test system: K-562 leukemia
[21] = test system: KM12 colon
[22] = test system: LOX IMVI melanoma
[23] = test system: M14 melanoma
[24] = test system: MCF7 breast
[25] = test system: MDA-MB-231 breast
[26] = test system: MDA-MB-435
[27] = test system: MOLT-4 leukemia
[28] = test system: NCI-H226 lung
[29] = test system: NCI-H23 lung
[30] = test system: NCI-H460 lung
[31] = test system: NCI-H522 lung
[32] = test system: NCI/ADR-RES ovarian
[33] = test system: OVCAR-3 ovarian
[34] = test system: OVCAR-4 ovarian
[35] = test system: OVCAR-5 ovarian
[36] = test system: OVCAR-8 ovarian
[37] = test system: PC-3 prostate
[38] = test system: RPMI-8226 leukemia
[39] = test system: RXF 393 renal
[40] = test system: SF-268 CNS
[41] = test system: SF-539 CNS
[42] = test system: SK-MEL-2 melanoma
[43] = test system: SK-MEL-28 melanoma
[44] = test system: SK-MEL-5 melanoma
[45] = test system: SK-OV-3 ovarian
[46] = test system: SN12C renal
[47] = test system: SNB-19 CNS
[48] = test system: SNB-75 CNS
[49] = test system: SR leukemia
[50] = test system: SW-620 colon
[51] = test system: T-47D breast
[52] = test system: TK-10 renal
[53] = test system: U251 CNS
[54] = test system: UACC-257 melanoma
[55] = test system: UACC-62 melanoma
[56] = test system: UO-31 renal

CCSCC1CC(O)(c2ccccc2)C(c2ccccc2)C(c2ccc(F)cc2)O1 (configuration not stated)
GI50 [1]: 2190 nM
TGI [1]: 5080 nM
GI50 [2]: 2150 nM
TGI [2]: 3700 nM
GI50 [3]: 2150 nM
TGI [3]: 6350 nM
GI50 [4]: 2220 nM
TGI [4]: 5540 nM
GI50 [5]: 2310 nM
TGI [5]: 7720 nM
GI50 [6]: 1580 nM
TGI [6]: 3480 nM
GI50 [7]: 3150 nM
TGI [7]: 32100 nM
GI50 [8]: 1810 nM
TGI [8]: 3840 nM
GI50 [9]: 2750 nM
TGI [9]: 6990 nM
GI50 [10]: 1820 nM
TGI [10]: 6130 nM
GI50 [11]: 2230 nM
TGI [11]: 4580 nM
GI50 [12]: 1470 nM
TGI [12]: 3220 nM
GI50 [13]: 1760 nM
TGI [13]: 3990 nM
GI50 [14]: 1700 nM
TGI [14]: 6330 nM
GI50 [15]: 2080 nM
TGI [15]: 4520 nM
GI50 [16]: 1230 nM
TGI [16]: 3150 nM
GI50 [17]: 1830 nM
TGI [17]: 4880 nM
GI50 [18]: 1950 nM
TGI [18]: 6210 nM
GI50 [19]: 2680 nM
TGI [19]: 7120 nM
GI50 [20]: 2110 nM
TGI [20]: 6530 nM
GI50 [21]: 1900 nM
TGI [21]: 3810 nM
GI50 [22]: 1610 nM
TGI [22]: 3000 nM
GI50 [23]: 1740 nM
TGI [23]: 3230 nM
GI50 [24]: 2250 nM
TGI [24]: 6810 nM
GI50 [25]: 2580 nM
TGI [25]: 8300 nM
GI50 [26]: 1980 nM
TGI [26]: 5240 nM
GI50 [27]: 1610 nM
TGI [27]: 4910 nM
GI50 [28]: 1970 nM
TGI [28]: 4890 nM
GI50 [29]: 2010 nM
TGI [29]: 4870 nM
GI50 [30]: 1830 nM
TGI [30]: 4010 nM
GI50 [31]: 1570 nM
TGI [31]: 4840 nM
GI50 [32]: 1890 nM
TGI [32]: 6670 nM
GI50 [33]: 2190 nM
TGI [33]: 5260 nM
GI50 [34]: 2410 nM
TGI [34]: 8040 nM
GI50 [35]: 2080 nM
TGI [35]: 4910 nM
GI50 [36]: 2640 nM
TGI [36]: 8540 nM
GI50 [37]: 1950 nM
TGI [37]: 9060 nM
GI50 [38]: 1140 nM
TGI [38]: 5950 nM
GI50 [39]: 1870 nM
TGI [39]: 3570 nM
GI50 [40]: 2150 nM
TGI [40]: 5450 nM
GI50 [41]: 1600 nM
TGI [41]: 3070 nM
GI50 [42]: 1980 nM
TGI [42]: 4000 nM
GI50 [43]: 1740 nM
TGI [43]: 3400 nM
GI50 [44]: 1470 nM
TGI [44]: 2820 nM
GI50 [45]: 2700 nM
TGI [45]: 9150 nM
GI50 [46]: 1890 nM
TGI [46]: 5250 nM
GI50 [47]: 2050 nM
TGI [47]: 7600 nM
GI50 [48]: 1520 nM
TGI [48]: 3670 nM
GI50 [49]: 1980 nM
TGI [49]: 5850 nM
GI50 [50]: 1810 nM
TGI [50]: 4320 nM
GI50 [51]: 1560 nM
TGI [51]: 4800 nM
GI50 [52]: 2600 nM
TGI [52]: 7280 nM
GI50 [53]: 1750 nM
TGI [53]: 3910 nM
GI50 [54]: 2100 nM
TGI [54]: 4880 nM
GI50 [55]: 1910 nM
TGI [55]: 5500 nM
GI50 [56]: 1710 nM
TGI [56]: 6460 nM
